Results as given in patent US10597388B2, “Pyridazinone herbicides” (FMC CORPORATION, priority 2014, dated 2020).

Tests used:
Type in all cases: in vivo
[1] = tested on: barnyardgrass (Echinochloa crus-galli); test: Test A greenhouse herbicide test, pre- and postemergence
In short: (§1)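 Visual injury ratings, 0 (no effect) to 100 (complete control), versus untreated plants after roughly 10 d in a greenhouse. Compounds, formulated in a surfactant-containing non-phytotoxic solvent, were sprayed on loam–sand soil after sowing (pre) or on one- to two-leaf plants 2–10 cm tall (post).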

[2] = tested on: corn (Zea mays); test: as above; conditions: Postemergence
In short: as §1

[3] = tested on: foxtail, giant (giant foxtail, Setaria faberii); test: as above
In short: as §1

[4] = tested on: kochia (Kochia scoparia); test: as above
In short: as §1

[5] = tested on: pigweed (Amaranthus retroflexus); test: as above
In short: as §1

[6] = tested on: ragweed (common ragweed, Ambrosia elatior); test: as above
In short: as §1

[7] = tested on: ryegrass, Italian (Italian ryegrass, Lolium multiflorum); test: as above
In short: as §1

[8] = tested on: wheat (Triticum aestivum); test: as above; conditions: Postemergence
In short: as §1

[9] = tested on: blackgrass (Alopecurus myosuroides); test: Test A greenhouse herbicide test, postemergence
In short: (§2)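 Seedlings in a loam soil and sand mix received formulated compound postemergence at the one- to two-leaf stage. Greenhouse holding lasts approximately 10 d, then injury is scored visually relative to untreated plants, 0 meaning no effect and 100 complete control.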

[10] = tested on: galium (catchweed bedstraw, Galium aparine); test: Test A greenhouse herbicide test, postemergence
In short: as §2

[11] = tested on: barnyardgrass (Echinochloa crus-galli); test: Test B flooded paddy test; conditions: 250 g ai/ha, Flood; visual rating on scale of 0 to 100 where 0 is no effect and 100 is complete control; 13 to 15 d after treatment
In short: (§3)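 Ratings use a 0-100 visual scale, where 100 is complete control, and compare treated plants with controls after 13 to 15 d of greenhouse growth. Compound went straight into paddy water kept 3 cm over the soil surface, applied to seedlings at the 2-leaf stage.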

[12] = tested on: ducksalad (Heteranthera limosa); test: Test B flooded paddy test; conditions: 250 g ai/ha, Flood; visual rating on scale of 0 to 100 where 0 is no effect and 100 is complete control; 13 to 15 d after treatment
In short: as §3

[13] = tested on: rice (Oryza sativa); test: Test B flooded paddy test; conditions: 250 g ai/ha, Flood; visual rating on scale of 0 to 100 where 0 is no effect and 100 is complete control; 13 to 15 d after treatment
In short: as §3

[14] = tested on: sedge, umbrella (small-flower umbrella sedge, Cyperus difformis); test: Test B flooded paddy test; conditions: 250 g ai/ha, Flood; visual rating on scale of 0 to 100 where 0 is no effect and 100 is complete control; 13 to 15 d after treatment
In short: as §3

[15] = Postemergence, 125 g ai/ha, 0 to 100 scale where 0 is no effect and 100 is complete control
[16] = Postemergence, 500 g ai/ha, visual rating after approx. 10 d, 0 to 100 scale (0 no effect, 100 complete control)
[17] = Preemergence, 125 g ai/ha, 0 to 100 scale where 0 is no effect and 100 is complete control
[18] = Preemergence, 500 g ai/ha, 0 to 100 scale where 0 is no effect and 100 is complete control
[19] = 125 g ai/ha, 0 to 100 scale where 0 is no effect and 100 is complete control
[20] = 500 g ai/ha, visual rating after approx. 10 d, 0 to 100 scale (0 no effect, 100 complete control)
[21] = Postemergence, 1000 g ai/ha, 0 to 100 scale, 0 is no effect, 100 is complete control
[22] = Preemergence, 1000 g ai/ha, 0 to 100 scale, 0 no effect, 100 complete control
[23] = 1000 g ai/ha, 0 to 100 scale, 0 is no effect, 100 is complete control
[24] = Postemergence, 125 g ai/ha, 0 to 100 scale, 0 no effect, 100 complete control
[25] = Preemergence, 125 g ai/ha, visual injury rating, 0 to 100 scale (0 no effect, 100 complete control), approx. 10 d
[26] = 125 g ai/ha, 0 to 100 scale, 0 no effect, 100 complete control

SMILES | Plant response rating, Barnyardgrass [1, 16] | Plant response rating, Barnyardgrass [1, 18] | Plant response rating, Corn [2, 20] | Plant response rating, Foxtail, Giant [3, 16] | Plant response rating, Foxtail, Giant [3, 18] | Plant response rating, Kochia [4, 16] | Plant response rating, Kochia [4, 18] | Plant response rating, Pigweed [5, 16] | Plant response rating, Pigweed [5, 18] | Plant response rating, Ragweed [6, 16] | Plant response rating, Ragweed [6, 18] | Plant response rating, Ryegrass, Italian [7, 16] | Plant response rating, Ryegrass, Italian [7, 18] | Plant response rating, Wheat [8, 20] | Plant response rating, Blackgrass [9, 20] | Plant response rating, Galium [10, 20] | Plant response rating, Barnyardgrass [11] | Plant response rating, Ducksalad [12] | Plant response rating, Rice [13] | Plant response rating, Sedge, Umbrella [14] | further results
CCc1nn(C)c(=O)c(-c2c(C)oc3ccccc23)c1O [Compound 117] | 40 | 50 | 0 | 20 | 30 | 10 | 0 | 20 | 30 | 0 | 0 | 0 | 0 | 0 | 0 | 0 | 0 | 0 | 0 | 0 | Plant response rating, Barnyardgrass [1, 15]: 0; Barnyardgrass plant response rating [1, 17]: 0; Plant response rating, Corn [2, 19]: 0; Plant response rating, Foxtail, Giant [3, 15]: 0; Foxtail, Giant plant response rating [3, 17]: 0; Plant response rating, Kochia [4, 15]: 0; Kochia plant response rating [4, 17]: 0; Plant response rating, Pigweed [5, 15]: 0; Pigweed plant response rating [5, 17]: 0; Plant response rating, Ragweed [6, 15]: 0; Ragweed plant response rating [6, 17]: 0; Plant response rating, Ryegrass, Italian [7, 15]: 0; Ryegrass, Italian plant response rating [7, 17]: 0; Plant response rating, Wheat [8, 19]: 0; Plant response rating, Blackgrass [9, 19]: 0; Plant response rating, Galium [10, 19]: 0
Cc1nn(C)c(=O)c(-c2cccc3ccccc23)c1OC(=O)C=Cc1ccccc1 [Compound 183] |  |  |  |  |  |  |  |  |  |  |  |  |  |  |  |  | 0 | 0 | 0 | 0 | Barnyardgrass plant response rating [1, 21]: 40; Plant response rating, Barnyardgrass [1, 22]: 40; Corn plant response rating [2, 23]: 10; Foxtail, Giant plant response rating [3, 21]: 70; Plant response rating, Foxtail, Giant [3, 22]: 60; Kochia plant response rating [4, 21]: 90; Plant response rating, Kochia [4, 22]: 70; Pigweed plant response rating [5, 21]: 90; Plant response rating, Pigweed [5, 22]: 90; Ragweed plant response rating [6, 21]: 70; Plant response rating, Ragweed [6, 22]: 80; Ryegrass, Italian plant response rating [7, 21]: 100; Plant response rating, Ryegrass, Italian [7, 22]: 90; Wheat plant response rating [8, 23]: 0; Blackgrass plant response rating [9, 23]: 80; Galium plant response rating [10, 23]: 90
Cc1nn(C)c(=O)c(-c2c([N+](=O)[O-])ccc3ccccc23)c1OC(=O)C(C)(C)C [Compound 163] | 0 | 0 | 0 | 0 | 0 | 20 | 0 | 20 | 70 | 0 | 0 | 70 | 50 | 0 | 20 | 60 | 0 | 0 | 0 | 0 | Plant response rating, Barnyardgrass [1, 24]: 0; Plant response rating, Barnyardgrass [1, 25]: 0; Plant response rating, Corn [2, 26]: 0; Plant response rating, Foxtail, Giant [3, 24]: 0; Plant response rating, Foxtail, Giant [3, 25]: 0; Plant response rating, Kochia [4, 24]: 0; Plant response rating, Kochia [4, 25]: 0; Plant response rating, Pigweed [5, 24]: 0; Plant response rating, Pigweed [5, 25]: 30; Plant response rating, Ragweed [6, 24]: 0; Plant response rating, Ragweed [6, 25]: 0; Plant response rating, Ryegrass, Italian [7, 24]: 20; Plant response rating, Ryegrass, Italian [7, 25]: 10; Plant response rating, Wheat [8, 26]: 0; Plant response rating, Blackgrass [9, 26]: 0; Plant response rating, Galium [10, 26]: 30
Cc1ccc2sc(C)c(-c3c(OCC#N)c(C)nn(C)c3=O)c2c1 [Compound 160] | 20 | 10 | 0 | 20 | 30 | 60 | 20 | 90 | 100 | 80 | 80 | 90 | 80 | 0 | 20 | 90 | 0 | 0 | 0 | 0 | Plant response rating, Barnyardgrass [1, 24]: 10; Plant response rating, Barnyardgrass [1, 25]: 10; Plant response rating, Corn [2, 26]: 0; Plant response rating, Foxtail, Giant [3, 24]: 10; Plant response rating, Foxtail, Giant [3, 25]: 10; Plant response rating, Kochia [4, 24]: 30; Plant response rating, Kochia [4, 25]: 20; Plant response rating, Pigweed [5, 24]: 80; Plant response rating, Pigweed [5, 25]: 50; Plant response rating, Ragweed [6, 24]: 70; Plant response rating, Ragweed [6, 25]: 30; Plant response rating, Ryegrass, Italian [7, 24]: 30; Plant response rating, Ryegrass, Italian [7, 25]: 20; Plant response rating, Wheat [8, 26]: 0; Plant response rating, Blackgrass [9, 26]: 10; Plant response rating, Galium [10, 26]: 70
